Measurements as given in publication PMC6934184, “Selective DNA-PKcs inhibition extends the therapeutic index of localized radiotherapy and chemotherapy” (The Journal of Clinical Investigation, 2019).

Molecular target: T1, LRRK2 G2019S (Homo sapiens, UniProt Q5S007, G2019S)
T1 construct: purchased Thermo Fisher Scientific (Life Technologies) SelectScreen
Test: SelectScreen Adapta
Format: biochemical
Summary of the method: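 SelectScreen broad panel; activity (Z'LYTE, Adapta) plus binding formats. ATP: Km app for CSF1R Z'LYTE; 10 for CAMK1 Adapta. Readout = % per kinase.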

T1 sequence (Q5S007 whole entry G2019S): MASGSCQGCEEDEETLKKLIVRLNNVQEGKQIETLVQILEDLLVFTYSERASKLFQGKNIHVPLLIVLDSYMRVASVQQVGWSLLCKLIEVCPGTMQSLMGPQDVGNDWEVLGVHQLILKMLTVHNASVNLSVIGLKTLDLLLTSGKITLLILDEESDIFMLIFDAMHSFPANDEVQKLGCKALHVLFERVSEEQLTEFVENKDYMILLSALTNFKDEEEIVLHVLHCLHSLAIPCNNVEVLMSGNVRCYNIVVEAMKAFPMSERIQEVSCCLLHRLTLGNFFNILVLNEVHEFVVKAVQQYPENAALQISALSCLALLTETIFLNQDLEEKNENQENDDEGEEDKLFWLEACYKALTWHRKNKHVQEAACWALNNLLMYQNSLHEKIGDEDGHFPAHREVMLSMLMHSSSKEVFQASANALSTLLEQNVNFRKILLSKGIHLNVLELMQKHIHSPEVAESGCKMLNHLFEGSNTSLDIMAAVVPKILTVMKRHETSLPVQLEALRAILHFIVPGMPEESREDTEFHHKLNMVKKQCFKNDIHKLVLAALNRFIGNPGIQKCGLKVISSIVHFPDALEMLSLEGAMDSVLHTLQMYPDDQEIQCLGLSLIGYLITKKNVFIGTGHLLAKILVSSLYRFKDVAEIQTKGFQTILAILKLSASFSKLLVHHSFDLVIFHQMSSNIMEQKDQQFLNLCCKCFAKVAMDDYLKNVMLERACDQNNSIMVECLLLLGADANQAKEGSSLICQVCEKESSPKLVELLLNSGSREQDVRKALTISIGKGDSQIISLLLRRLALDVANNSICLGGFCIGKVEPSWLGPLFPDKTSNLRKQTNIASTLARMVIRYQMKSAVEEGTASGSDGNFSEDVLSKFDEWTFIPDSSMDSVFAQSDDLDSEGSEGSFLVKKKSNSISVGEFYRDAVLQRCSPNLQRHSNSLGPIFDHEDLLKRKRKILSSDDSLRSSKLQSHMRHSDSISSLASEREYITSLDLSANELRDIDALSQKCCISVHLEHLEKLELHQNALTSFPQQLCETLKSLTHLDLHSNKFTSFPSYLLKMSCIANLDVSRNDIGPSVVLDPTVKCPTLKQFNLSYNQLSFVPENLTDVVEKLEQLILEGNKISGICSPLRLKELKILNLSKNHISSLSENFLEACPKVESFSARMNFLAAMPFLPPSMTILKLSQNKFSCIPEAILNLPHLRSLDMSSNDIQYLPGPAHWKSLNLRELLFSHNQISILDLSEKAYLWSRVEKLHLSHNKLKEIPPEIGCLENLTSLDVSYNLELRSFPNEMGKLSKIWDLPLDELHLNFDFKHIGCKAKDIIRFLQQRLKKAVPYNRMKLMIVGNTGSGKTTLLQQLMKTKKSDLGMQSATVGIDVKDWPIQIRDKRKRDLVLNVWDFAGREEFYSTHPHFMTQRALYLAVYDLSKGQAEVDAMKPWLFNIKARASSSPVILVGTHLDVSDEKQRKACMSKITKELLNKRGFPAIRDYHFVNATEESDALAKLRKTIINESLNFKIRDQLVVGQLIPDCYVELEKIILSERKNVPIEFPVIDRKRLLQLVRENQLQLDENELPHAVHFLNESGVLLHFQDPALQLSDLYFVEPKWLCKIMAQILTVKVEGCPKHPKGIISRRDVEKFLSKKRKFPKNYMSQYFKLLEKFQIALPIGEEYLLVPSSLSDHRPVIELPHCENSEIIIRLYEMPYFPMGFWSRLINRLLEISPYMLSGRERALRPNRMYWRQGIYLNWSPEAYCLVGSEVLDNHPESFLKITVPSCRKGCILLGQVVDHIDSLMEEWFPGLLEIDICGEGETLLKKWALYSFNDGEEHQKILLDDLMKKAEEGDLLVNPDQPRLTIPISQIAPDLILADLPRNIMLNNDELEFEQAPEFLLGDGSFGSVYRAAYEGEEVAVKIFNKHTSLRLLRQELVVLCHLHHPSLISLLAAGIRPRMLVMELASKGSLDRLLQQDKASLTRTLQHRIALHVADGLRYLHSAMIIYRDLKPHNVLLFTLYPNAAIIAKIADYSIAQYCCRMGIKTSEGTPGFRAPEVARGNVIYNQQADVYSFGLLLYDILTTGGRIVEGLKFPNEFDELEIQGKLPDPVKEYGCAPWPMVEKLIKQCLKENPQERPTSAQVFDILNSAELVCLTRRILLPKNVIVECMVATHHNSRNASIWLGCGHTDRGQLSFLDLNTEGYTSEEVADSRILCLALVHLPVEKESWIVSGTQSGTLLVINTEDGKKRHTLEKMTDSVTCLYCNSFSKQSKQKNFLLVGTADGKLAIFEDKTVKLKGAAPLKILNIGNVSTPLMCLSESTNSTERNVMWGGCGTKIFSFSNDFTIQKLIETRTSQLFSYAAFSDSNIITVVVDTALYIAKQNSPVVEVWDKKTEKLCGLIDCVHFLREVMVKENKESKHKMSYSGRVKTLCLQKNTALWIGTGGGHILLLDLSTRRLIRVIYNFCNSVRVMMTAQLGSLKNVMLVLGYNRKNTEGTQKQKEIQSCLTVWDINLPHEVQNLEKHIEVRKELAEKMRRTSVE

For `CN(C(=O)CN1CCOCC1)c1ccc2sc3c(-c4cccc5c(=O)cc(N6CC7CCC(C6)O7)oc45)cccc3c2c1` [NU5455], the inhibition at 1 µM was 3%.
